Values of other authors in patent US11944682B2, “Aggregation induced emission-bacteriophage bioconjugates” (priority 2020, dated 2024).

Settings: used as standard

**Q.** For `O=C1OC2(c3cc(I)c(O)c(I)c3Oc3c2cc(I)c(O)c3I)c2c(Cl)c(Cl)c(Cl)c(Cl)c21` [Rose Bengal, Rose Bengal lactone], which “quantum yield for 1O2 (standard)” value is on record?
**A.** ~75%
